Experimental findings from US20230255884A1, “FINISHED FIBROUS SRUCTURES AND METHODS OF THEIR USE AND PREPARATION” (CLEXIO BIOSCIENCES LTD., priority 2019, published 2023) are described below.

Data set [1] is described as follows: Example 16: % Add on of diclofenac compositions (10% Diclofenac sodium salt, 10% PEG 400, 10% propylene glycol, 2% Polysorbate 80), 60° C., 1 h, squeezed. The format is physicochemical. How it is done:
The samples were then removed from their vessels, squeezed, weighed and left to dry overnight at room temperature before their dry weight and percentage Add on were determined.

Data set [2] can be described thus: Example 16: diclofenac in the mother liquor by HPLC. The format is physicochemical.

Each structure is given as a SMILES string. Structures can show the parent of a compound that is named as a salt.

Take `O=C(O)Cc1ccccc1Nc1c(Cl)cccc1Cl` [Diclofenac, Diclofenac sodium salt]: the “% Add on” value in data set [1] (NaOH 1 drop, pH 13.2) was 32.0%; in data set [1] (NaOH 1 drop, pH 14.0), 46.0%; in data set [1] (ethanol 13.6% (w/w), no NaOH, pH 8.3), 44.1%; in data set [1] (no ethanol, no NaOH, pH 8.5) it was 42.2%. Also, the “diclofenac concentration in the mother liquor” value in data set [2] (ethanol based liquor) came to 90.76 mg/g; in data set [2] (water based liquor), 93.68 mg/g.
